What was measured:
[1] = PK study in Wuzhishan miniature pigs after a single oral dose, plasma by HILIC-MS/MS; format: in vivo, Wuzhishan miniature pig; settings: average, single oral dose 0.2 g
Method: Two ordinary grade, healthy, Wuzhishan miniature pig (6–8 months old, 7–9 kg) were purchased from Pearl Laboratory Animal Sci. & Tech. Co., Ltd (Dongguan, China) and maintained on standard food and water. The pigs were housed in individual cages and identified by ear tags. […] Blood samples (1.5 ml) were collected in heparinized tubes via the precaval or pelvic vein before medication and 0.5, 1, 2, 4, 6, 8, 12, 24, 36, 48, 72, 96 and 120 h after drug administration. All blood samples were immediately centrifuged at 2000 × g for 15 min (Centrifuge 5418, Eppendorf) and then stored at −70°C before analysis. The maximum plasma concentration (Cmax) and time of occurrence (tmax) were read directly from the concentration-time curve. Other PK parameters were calculated with DAS 3.2.4 software, using a noncompartmental model.

[2] = Stability of chloroquine in miniature pig plasma QC samples under different storage conditions; format: in vitro ADME
Method: Mimic pig plasma samples at LQC and HQC levels were analyzed along with freshly spiked calibration standards to obtain calculated concentrations.
Benchtop stability was evaluated by allowing QC samples to stand for 6 h prior to preparation. Unextracted QC samples were stored at -20°C for 40 days before extraction to test long-term stability. To analyze freeze–thaw stability, QC samples were stored at -20°C and then allowed to thaw to room temperature for three cycles. Processed QC samples were allowed to stand in the autosampler for 24 h before analysis to determine whether an occasional delay in injection, or reinjection of extracted samples, would lead to degradation.

[3] = Stock solution stability of chloroquine; format: physicochemical; settings: 40 days at -20°C vs freshly prepared, read-out: Solution stability (40 day), Recovery (mean ± SD, %)
[4] = Stability of chloroquine in miniature pig plasma QC samples under different storage conditions; format: in vitro ADME; settings: miniature pig plasma (spiked QC samples), plasma QC standing prior to preparation, read-out: Benchtop stability (8 h), Recovery (mean ± SD, %)
[5] = healthy miniature pigs, noncompartmental model

CCN(CC)CCCC(C)Nc1ccnc2cc(Cl)ccc12 (stereo not shown) [chloroquine, N’-(7-chloro-4-quinolyl)-N,N-diethyl-pentane-1,4-diamine]
AUC(0-inf) ([1]; Wuzhishan miniature pig, pig, plasma, healthy miniature pigs, noncompartmental model): 380 ng·h/mL | half-life ([1]; Wuzhishan miniature pig, pig, plasma, healthy miniature pigs, noncompartmental model, read-out: elimination t1/2 (converted)): 16.9 h | Cmax ([1]; Wuzhishan miniature pig, pig, healthy miniature pigs (two animals), plasma): 15 ng/mL | Tmax ([1]; Wuzhishan miniature pig, pig, healthy miniature pigs, plasma): 3 h | CL/F [1, 5]: 54.15 L/h | V/F [1, 5]: 1543.82 L | stability of prepared samples after storage in the autosampler ([2]; 24 h in autosampler): stable | time stable during bench top preparation ([2]; miniature pig plasma): at least 6 h | time stable on storage at −20°C ([2]; miniature pig plasma): at least 40 days | recovery at 75 ng/ml ([2]; miniature pig, miniature pig plasma (spiked QC samples), HQC (75 ng/ml), -20°C to room temperature, three cycles, read-out: Freeze–thaw stability (3 cycles), Recovery (mean ± SD, %)): 106 ± 1.07% | recovery at 40 day, 75 ng/ml ([2]; miniature pig, miniature pig plasma (spiked QC samples), HQC (75 ng/ml), unextracted plasma QC stored at -20°C for 40 days, read-out: Long-term stability (40 day), Recovery (mean ± SD, %)): 104.3 ± 1.04% | recovery at 3 ng/ml ([2]; miniature pig, miniature pig plasma (spiked QC samples), LQC (3 ng/ml), -20°C to room temperature, three cycles, read-out: Freeze–thaw stability (3 cycles), Recovery (mean ± SD, %)): 106 ± 9.74% | recovery at 40 day, 3 ng/ml ([2]; miniature pig, miniature pig plasma (spiked QC samples), LQC (3 ng/ml), unextracted plasma QC stored at -20°C for 40 days, read-out: Long-term stability (40 day), Recovery (mean ± SD, %)): 106 ± 3.35% | recovery at 24 h, 75 ng/ml ([2]; miniature pig, HQC (75 ng/ml), processed samples in autosampler for 24 h, read-out: Processed stability (24 h), Recovery (mean ± SD, %)): 105.7 ± 0.34% | recovery at 24 h, 3 ng/ml ([2]; miniature pig, LQC (3 ng/ml), processed samples in autosampler for 24 h, read-out: Processed stability (24 h), Recovery (mean ± SD, %)): 98.9 ± 1.08% | recovery at 40 day, 75 ng/ml ([3]; HQC (75 ng/ml)): 103 ± 2.46% | recovery at 40 day, 3 ng/ml ([3]; LQC (3 ng/ml)): 102 ± 6.75% | recovery at 8 h, 75 ng/ml ([4]; HQC (75 ng/ml)): 103.5 ± 1% | recovery at 8 h, 3 ng/ml ([4]; LQC (3 ng/ml)): 104 ± 1.33%

Reference: article PMC7099630 (Bioanalysis, 2016)
